Data set [1] relates to human umbilical vein endothelial cells (HUVEC). Description: Binding of FITC-labeled ART-2 peptide to endothelial cells in vitro. The data set is classed as cell-based. Particulars: 2 h. On the procedure: (§1) FIG. 4, comprising FIG. 4A through FIG. 4D, depicts in vitro and in vivo binding of ART-2 peptides. FIG. 4A depicts the binding of fluorescein isothiocyanate (FITC)-labeled ART-2 peptide to human umbilical vein endothelial cells (HUVEC) in vitro (HUVEC were treated with ART-2-FITC peptides for 2 h at the indicated concentrations). A representative histogram is shown. FIG. 4B depicts HUVEC that were stained with ART-2-FITC peptide at 0.5 μM concentration, PE-labeled CD31 (a marker for endothelial cells), and DAPI (for nucleus staining) and examined under a fluorescence microscope. FIG. 4C depicts in vivo distribution of Cyanine 7 (Cy7)-labeled ART-2 peptide: real-time fluorescence imaging of arthritic rats at 4 h time point after i.v. injection of the peptide following the procedure described in the legend to FIG. 7. FIG. 4D depicts images of ex-vivo fluorescence of different organs harvested from arthritic rats at 4 h after i.v. injection of ART-2-Cy7-peptide.

The subject of the next data set is rat arthritic joints. Description: In vivo distribution of Cy7-labeled ART-2 peptide (homing to arthritic joints). Particulars: i.v., arthritic rats, 4 h. Here is the method: as §1

Where no end group is shown, it is not given here.

As to “CKPFDRALC (not fully specified; cysteine pairing not given here) [ART-2, novel tissue-targeting peptide]”, the “binding of peptide to endothelial cells” value in data set [1] is reported as “avid binding to endothelial cells”. Moreover, the “homing to arthritic joints” value in the data set on rat arthritic joints is listed as “preferential homing to rat arthritic joints”.
